{"source": "patent US10471035B2", "about": "“Compositions and methods for using esters of meroterpenes and of other resveratrol analogues” (Sunny BioDiscovery, priority 2014, dated 2019)", "key": {"[1]": {"test": "DPPH assay (free radical scavenging)", "type": "biochemical", "conditions": "520 nm", "excerpt": "The objective of this experiment was to determine the antioxidant capacity of SBD.SE, using DPPH assay methodology. DPPH (2,2-diphenyl-1-picrylhydrazyl) is a stable free radical. The principle of the DPPH assay uses the reduction of the DPPH radical (purple) to diphenylpicrylhydrazine (yellow) as an indication of free radical scavenging capacity of a given test material (Schenk, G. H., Swieczkowski, N. K., “Colorimetric determination of pyrogallol and 2,6-dimethoxyphenol with diphenylpicrylhydrazyl,” Talanta, 1971, 18:230-4). Following the incubation of a test agent with DPPH solution, a reduction in absorbance at 520 nm compared to control is indicative of DPPH-scavenging. The degree of DPPH scavenging activity is expressed as % water control."}, "EpiOcular™ tissue": {"system": "EpiOcular™ tissue", "test": "EpiOcular Eye Irritation Test (OCL-200-EIT)", "type": "cell-based, human", "protocol": "Also, the effect of SBD.SE on the epiocular system was investigated. Epiocular system consists of normal, human-derived epidermal keratinocytes, which have been cultured to form a stratified, squamous epithelium similar to that found in the cornea.\nThe effect of SBD.SE was assayed on the EpiOcular™ tissue, using the MatTek (Ashland, Mass.) EpiOcular™ Eye Irritation Test (OCL-200-EIT) protocol.\nBased on the “depth of injury” model, the Epiocular EIT is intended to differentiate those materials that are non-irritants (would not require a warning label in the European chemical classification systems) from those that would require labeling as either GHS1 or 2. Consequentially, this test allows to distinguish those materials that would induce no damage or damage limited into the corneal epithelium from those that would damage/destroy the epithelium and continue damage into the stroma.\nThis protocol utilizes the MTT-based cytotoxicity readout as the experimental endpoint, and thus effectively measures the cytotoxicity of test materials. Biological duplicates are used for all calculations. SBD.SE was tested at 10% (100 mg/ml) in dimethyl isosorbide (DMI). The negative control was type I sterile water and the positive control was neat methyl acetate. The pre-incubation time I was 60 min., preincubation time II—overnight, treatment time—30 min., post-soak is 120 min, incubation time with MTT test was 3 h and the extraction was overnight. The extracted formazan was quantified with Molecular Devices microplate spectrophotometer MAX190 at 570 nm.\nTissue irritation is a common side effect of retinoids. It is mediated, at least in part, by retinoid interaction with retinoic acid receptors (RARs; Thacher S M, Vasudevan J, Chandraratna R A. Therapeutic applications for ligands of retinoid receptors. Curr Pharm Des. 2000 January; 6(1):25-58; Kambayashi H, Odake Y, Takada K, Funasaka Y, Ichihashi M, Kato S. N-retinoyl-D-glucosamine, a new retinoic acid agonist, mediates topical retinoid efficacy with no irritation on photoaged skin. Br J Dermatol. 2005 December; 153 Suppl 2:30-6)."}, "3T3 cells": {"system": "3T3 cells", "test": "3T3 Neutral Red phototoxicity (OECD 432)", "type": "cell-based", "conditions": "up to at least 100 μg/ml", "protocol": "Phototoxicity is defined as light-activated cytotoxicity. […] The protocol followed in this example was based on the OECD 432 Guidelines. Four 96 well plates were seeded with 3T3 cells (Sigma, St. Louis, Mo.; cat. 93061524-1VL) at 10,000 cells per well in DMEM supplemented with 10% iron-fortified calf serum, and grown overnight in humidified atmosphere at 37° C. in 5% CO2. Serial dilutions of SBD.SE and chlorpromazine (positive control) were added to 2 plates each. […]\n[…] Plates were returned to the incubator for 24 h, afterward the medium was removed, cells were rinsed with PBS and placed in Neutral Red medium at 50 μg/ml in which cells were incubated for 3 more hours. Wells were then washed with PBS and Neutral Red was extracted from cells with 1.0% Glacial Acetic Acid/50% Ethanol/49% H2O solution.\nFollowing a 30-minute extraction with mixing, the absorbance of each well was measured at 570 nm with Molecular Devices SpectraMax® microplate spectrophotometer. P values were calculated using two-tailed Student's test and p=0.05 was set as borderline for statistical significance."}, "P. acnes": {"system": "P. acnes", "test": "MIC against planktonic P. acnes", "type": "cell-based, Propionibacterium acnes", "conditions": "Cutibacterium acnes; exponentially-growing planktonic bacteria, oxygen-free atmosphere; read-out: MIC (minimal inhibitory concentration)", "protocol": "Serial dilutions of SBD.SE and SBD.FA were incubated with exponentially-growing planktonic P. acnes bacteria in oxygen-free atmosphere.\nThe MIC (minimal inhibitory concentration) for SBD.SE was determined to be about 30 μg/ml and for SBD.FA—about 60 μg/ml."}}}
{"smiles": "C=C[C@@](C)(/C=C/c1ccc(OC(=O)c2ccccc2O)cc1)CCC=C(C)C", "note": "[SBD.SE, Salicylic acid ester of bakuchiol]", "values": [{"measurement": "DPPH color (% Control)", "setting": "[1]; 0.5 ug/ml", "value": 86, "unit": "% Control"}, {"measurement": "DPPH color (% Control)", "setting": "[1]; 2 ug/ml", "value": 89, "unit": "% Control"}, {"measurement": "DPPH color (% Control)", "setting": "[1]; 10 ug/ml", "value": 59, "unit": "% Control"}, {"measurement": "DPPH color (% Control)", "setting": "[1]; 16 ug/ml", "value": 28, "unit": "% Control"}, {"measurement": "DPPH color (% Control)", "setting": "[1]; 40 ug/ml", "value": 6, "unit": "% Control"}, {"measurement": "irritation in reconstituted squamous epithelium model", "setting": "EpiOcular™ tissue", "value": "no statistically significant irritation"}, {"measurement": "classification in EpiOcular EIT", "setting": "EpiOcular™ tissue; 10% (100 mg/ml) in DMI", "value": "non-irritant and non-cytotoxic"}, {"measurement": "viability (% of water control)", "setting": "EpiOcular™ tissue; SBD.SE 10% (100 mg/ml) in DMI, methyl acetate neat, 30 min treatment, MTT", "value": "over 60%"}, {"measurement": "cytotoxicity in absence and presence of UVB light", "setting": "3T3 cells", "value": "lack of significant cytotoxicity"}, {"measurement": "MIC", "setting": "P. acnes", "value": "~30", "unit": "µg/mL"}]}
